Experiments:
[1] = test system: Sprague-Dawley rats underwent 5/6th nephrectomy; assay: In vivo study in 5/6th nephrectomy rats, urine phosphorus excretion; conditions: 314 mg elemental lanthanum/kg/day oral, once daily for 14 days, compared to untreated rats
Method: Groups of six adult Sprague-Dawley rats underwent 5/6th nephrectomy in two stages over a period of 2 weeks and were then allowed to recover for a further two weeks prior to being randomized for treatment. The groups received vehicle (0.5% w/v carboxymethyl cellulose), or lanthanum oxycarbonate suspended in vehicle, once daily for 14 days by […] (10 ml/kg/day). The dose delivered 314 mg elemental lanthanum/kg/day. Dosing was carried out immediately before the dark (feeding) cycle on each day. Urine samples (24 hours) were collected prior to surgery, prior to the commencement of treatment, and twice weekly during the treatment period. Volume and phosphorus concentration were measured.
Feeding—During the acclimatization and surgery period, the animals were given Teklad phosphate sufficient diet (0.5% Ca, 0.3%P; Teklad No. TD85343), ad libitum. At the beginning of the treatment period, animals were pair fed based upon the average food consumption of the vehicle-treated animals the previous week.
5/6 Nephrectomy—After one week of acclimatization, all animals were subjected to 5/6 nephrectomy surgery. The surgery was performed in two stages. First, the two lower branches of the left renal artery were ligated. One week later, a right nephrectomy was performed. […]

beagle dogs = assay: Dog study, urine phosphate excretion after oral capsules; type: in vivo; conditions: 2250 mg elemental lanthanum twice daily, urine approximately 24 hours after dosing
dogs = assay: Palatability study in dogs; type: in vivo; conditions: 9 dogs, during hours post meal
Description: Lanthanum oxycarbonate was mixed with wet and dry dog food and presented to 9 different dogs, almost all over 40 pounds.

Compound | phosphorus excretion (urine), a marker of dietary phosphorus binding [1] | urine phosphate excretion, a marker of phosphorous binding (beagle dogs) | signs of nausea, vomiting, bloating or flatus (dogs)
O=C([O-])[O-].[La+3].[OH-] [lanthanum carbonate hydroxide] | decrease in phosphorus excretion | – | –
O=C([O-])[O-].[La+3].[OH-] [compound A, LaCO3OH] | – | reduction of urine phosphate excretion | –
O=C([O-])[O-].[La+3].[La+3].[O-2].[O-2] [compound B, La2O2CO3] | – | reduction of urine phosphate excretion | –
lanthanum oxycarbonate | decrease in phosphorus excretion | – | None of the dogs exhibited signs of nausea, vomiting, bloating or flatus
